Reference: patent US9717806B2, “Method for detecting cancer using ICG fluorescence method” (Osaka Prefectural Hospital Organization, priority 2008, dated 2017)

Legend:
Assay type in all cases: in vivo, human
hepatocellular carcinoma [1] = assay: Intraoperative ICG fluorescence detection of accessory lesions with infrared camera system PDE, primary liver cancer; details: for confirmation of HCC areas by intraoperative PDE diagnosis: identification of main tumor by intraoperative ultrasonography was difficult
Protocol: (§1) Now the method of detecting an accessory cancer lesion using the accessory cancer lesion detector illustrated in FIG. 1 is described. First, the fluorescent dye indocyanine green is injected intravenously. After the lapse of a certain time (typically 1 to 10 days from the intravenous injection), when excitation light 10 of a certain wavelength (760 nm for instance) is irradiated on the target organ 20 from the excitation light source unit 2, a fluorescence image 11 in the near-infrared wavelength band is emitted by the accessory cancer lesion because of the indocyanine green. Here, the optical filter 3 allows the passage of the fluorescence image 11 while cutting off the reflected light coming from the target organ 20 that is being irradiated by the excitation light 10.
The fluorescence image 11 that passes through the optical filter 3 is captured by the CCD camera used as the imager 4, and the data of the observed image is output from the CCD camera to the controller 5. The controller 5 controls the brightness and contrast of the observed image coming from the imager 4. As a result, the observed image 15 (which includes the image of the main cancer lesion) containing the accessory cancer lesion image 16 is generated. […] Furthermore, if necessary, the observed image 15 is recorded on a recording medium in the image recorder 7.
(§2) In the examples 1 to 5 given below, the ICG (0.5 mg/kg) was injected intravenously a few days before the surgery. In other words, in the examples 1, 2, 3, 4, and 5, the intravenous ICG injection was administered, respectively, 4, 4, 8, 1, and 4 days before the surgery. […] In examples 1 to 4, the cancer was primary liver cancer, and in Example 5 it was metastatic liver cancer.

metastatic liver cancer = assay: Intraoperative ICG fluorescence detection of accessory lesions with infrared camera system PDE, metastatic liver cancer; details: Example 5, person; ICG 0.5 mg/kg intravenously 4 days before surgery; S4 segment of the liver; histology: adenocarcinoma, metastasis of colon cancer into the liver
Protocol: as §1
The fluorescence image 11 that passes through the optical filter 3 is captured by the CCD camera used as the imager 4, and the data of the observed image is output from the CCD camera to the controller 5. The controller 5 controls the brightness and contrast of the observed image coming from the imager 4. As a result, the observed image 15 (which includes the image of the main cancer lesion) containing the accessory cancer lesion image 16 is generated. […] Furthermore, if necessary, the observed image 15 is recorded on a recording medium in the image recorder 7. […]

hepatocellular carcinoma [2] = assay: PDE observation of cross-sections of resected, formalin-fixed liver slices after ICG injection; details: Example 4, ICG 0.5 mg/kg intravenously 1 day before surgery, 3 mm thick slices, areas diagnosed as highly differentiated HCC
Protocol: as §2
Example 4 was a case of a person. Preoperative contrast CT detected the presence of a single HCC, 25 mm in diameter, in the S5 segment of the liver. FIG. 6A is an image showing the result of contrast CT. The arrow indicates the HCC. […] FIG. 6B is a near-infrared fluorescence intensity distribution image (measured after the abdomen was opened but before the resection) from ICG in the liver. The fluorescent area indicated by the arrow at left is the main tumor area (main lesion), and the two arrows (arrowheads) on the right indicate fluorescent areas (accessory lesions), 3 mm in diameter, observed around the main tumor. Based on the above measurements, more than one fluorescent area (accessory lesions), each 3 mm in diameter, were resected in addition to the main tumor (main lesion). Further, the resected liver was fixed in formalin and made into 3 mm thick slices (FIG. 6C and FIG. 6G), and the cross-sections observed with the PDE (FIG. 6D and FIG. 6H). […]

CC1(C)C(/C=C/C=C/C=C/C=C2\N(CCCCS(=O)(=O)O)c3ccc4ccccc4c3C2(C)C)=[N+](CCCCS(=O)(=O)[O-])c2ccc3ccccc3c21 [ICG, indocyanine green]
diameter of fluorescent area (accessory lesion) detected in addition to the main tumor (hepatocellular carcinoma [1]; Example 1, person, ICG 0.5 mg/kg intravenously 4 days before surgery, S4 segment of the liver, not detected by contrast CT, histology: highly differentiated HCC): 5 mm | diameter of fluorescent area (accessory lesion) (hepatocellular carcinoma [1]; Example 3, person, ICG 0.5 mg/kg intravenously 8 days before surgery, S5 segment of the liver, histology: slightly less differentiated HCC than the main tumor): 5 mm | confirmation of HCC areas by intraoperative PDE diagnosis (hepatocellular carcinoma [1]; Example 3, ICG 0.5 mg/kg intravenously 8 days before surgery): could confirm the HCC areas (main and accessory lesions) as fluorescent areas | diameter of fluorescent areas (accessory lesions) observed around the main tumor (hepatocellular carcinoma [1]; Example 4, person, ICG 0.5 mg/kg intravenously 1 day before surgery, histology: highly differentiated HCC): 3 mm | confirmation of HCC areas by intraoperative PDE diagnosis (hepatocellular carcinoma [1]; Example 4, ICG 0.5 mg/kg intravenously 1 day before surgery): could confirm the HCC areas (main and accessory lesions) as fluorescent areas | diameter of fluorescent area (accessory lesion) detected apart from the two lesions identified before the surgery (metastatic liver cancer): 5 mm | near-infrared fluorescence in cross-sections of resected liver (hepatocellular carcinoma [2]): light emission from areas where no nodule was detected macroscopically
